{"source": "DBAASP", "experiment_in_all_cases": "≥ marks a high value that may be exact or a test limit, other limits are often not marked, values filed in µg/mL are converted to µM", "key": {"[1]": {"tested_on": "Staphylococcus aureus ATCC 43300"}, "[2]": {"tested_on": "Staphylococcus aureus ATCC 29213"}, "Escherichia coli O157": {"tested_on": "Escherichia coli O157"}, "[3]": {"tested_on": "Escherichia coli ATCC 25404"}, "[4]": {"tested_on": "Staphylococcus epidermidis ATCC 9709"}, "Salmonella typhimurium": {"tested_on": "Salmonella typhimurium"}, "Listeria monocytogenes": {"tested_on": "Listeria monocytogenes"}, "[5]": {"tested_on": "Micrococcus luteus ATCC 10420"}, "[6]": {"tested_on": "Staphylococcus aureus ATCC 25923"}, "[7]": {"tested_on": "Escherichia coli ATCC 25922"}, "Staphylococcus capitis 1": {"tested_on": "Staphylococcus capitis 1"}, "[8]": {"tested_on": "Yersinia pseudotuberculosis YPIII"}, "Bacillus megaterium Bm11": {"tested_on": "Bacillus megaterium Bm11"}, "[9]": {"tested_on": "Candida albicans ATCC 10231"}, "[10]": {"tested_on": "Staphylococcus aureus Cowan 1"}, "[11]": {"tested_on": "Stenotrophomonas maltophilia B32/1"}, "[12]": {"tested_on": "Klebsiella pneumoniae ATCC 700603"}, "[13]": {"tested_on": "Acinetobacter baumannii NM8"}, "[14]": {"tested_on": "Escherichia coli ATCC 25726"}, "[15]": {"tested_on": "Pseudomonas aeruginosa ATCC 27853"}, "[16]": {"tested_on": "Candida albicans ATCC 90028"}, "[17]": {"tested_on": "Stenotrophomonas maltophilia B32/4"}, "[18]": {"tested_on": "Staphylococcus aureus 127/08"}, "[19]": {"tested_on": "Escherichia coli ATCC 10536"}, "[20]": {"tested_on": "Escherichia coli DH5alpha"}, "[21]": {"tested_on": "Staphylococcus aureus ATCC 9144"}, "Acinetobacter baumannii": {"tested_on": "Acinetobacter baumannii"}, "[22]": {"tested_on": "Enterobacter cloacae 2524"}, "[23]": {"tested_on": "Klebsiella pneumoniae 913"}, "[24]": {"tested_on": "Enterobacter cloacae 6780"}, "Escherichia coli 170": {"tested_on": "Escherichia coli 170"}, "[25]": {"tested_on": "Pseudomonas aeruginosa 4677"}, "[26]": {"tested_on": "Escherichia coli ATCC 11775"}, "[27]": {"tested_on": "Staphylococcus aureus ATCC 12600"}, "Botrytis cinerea": {"tested_on": "Botrytis cinerea"}, "Staphylococcus aureus": {"tested_on": "Staphylococcus aureus"}, "[28]": {"tested_on": "Mycobacterium tuberculosis H37Rv"}, "Pseudomonas aeruginosa": {"tested_on": "Pseudomonas aeruginosa"}, "[29]": {"tested_on": "Enterococcus faecalis ATCC 19433"}}, "note": "“And” between values parts separate entries of the source, which are not always exact repeats. Equal values may be shown once.", "data": [{"molecule": "CC(C)C[C@H](NC(=O)[C@H](CC(C)C)NC(=O)[C@H](Cc1cnc[nH]1)NC(=O)[C@H](CO)NC(=O)[C@H](CC(C)C)NC(=O)[C@H](C)NC(=O)[C@H](CCCCN)NC(=O)[C@H](Cc1ccccc1)NC(=O)[C@H](CC(C)C)NC(=O)[C@H](C)NC(=O)CNC(=O)[C@H](CC(C)C)NC(=O)[C@@H](N)Cc1ccccc1)C(=O)O", "note": "[FLGALFKALSHLL]", "values": [{"measurement": "MIC", "setting": "[1]", "result": 4, "unit": "µM"}, {"measurement": "MIC", "setting": "[2]", "result": 8, "unit": "µM"}, {"measurement": "MIC", "setting": "Escherichia coli O157", "result": "≥ 64", "unit": "µM"}, {"measurement": "MIC", "setting": "[3]", "result": "≥ 64", "unit": "µM"}, {"measurement": "MIC", "setting": "[4]", "result": 8, "unit": "µM"}, {"measurement": "MIC", "setting": "Salmonella typhimurium", "result": "≥ 64", "unit": "µM"}, {"measurement": "MIC", "setting": "Listeria monocytogenes", "result": 8, "unit": "µM"}, {"measurement": "MIC", "setting": "[5]", "result": 8, "unit": "µM"}]}, {"molecule": "CC(C)C[C@H](NC(=O)[C@H](CC(C)C)NC(=O)[C@H](CCCCN)NC(=O)[C@H](CO)NC(=O)[C@H](CC(C)C)NC(=O)[C@H](C)NC(=O)[C@H](CCCCN)NC(=O)[C@H](Cc1c[nH]c2ccccc12)NC(=O)[C@H](CC(C)C)NC(=O)[C@H](C)NC(=O)CNC(=O)[C@H](CC(C)C)NC(=O)[C@@H](N)Cc1ccccc1)C(=O)O", "note": "[FLGALWKALSKLL]", "values": [{"measurement": "MIC", "setting": "[6]", "result": 4, "unit": "µM"}, {"measurement": "MIC", "setting": "Escherichia coli O157", "result": "≥ 64", "unit": "µM"}, {"measurement": "MIC", "setting": "[3]", "result": "≥ 64", "unit": "µM"}, {"measurement": "MIC", "setting": "[4]", "result": 4, "unit": "µM"}, {"measurement": "MIC", "setting": "Salmonella typhimurium", "result": "≥ 64", "unit": "µM"}, {"measurement": "MIC", "setting": "Listeria monocytogenes", "result": 4, "unit": "µM"}, {"measurement": "MIC", "setting": "[5]", "result": 2, "unit": "µM"}]}, {"molecule": "CC[C@H](C)[C@H](NC(=O)[C@H](CC(C)C)NC(=O)[C@@H]1CCCN1C(=O)[C@H](CC(C)C)NC(=O)[C@@H](N)Cc1ccccc1)C(=O)NCC(=O)N[C@@H](CCCN=C(N)N)C(=O)N[C@H](C(=O)N[C@@H](CC(C)C)C(=O)N[C@@H](CO)C(=O)NCC(=O)N[C@@H](C)C(=O)N[C@@H](CC(C)C)C(N)=O)C(C)C", "note": "[FLPLIGRVLSGAL]", "values": [{"measurement": "MIC", "setting": "[7]", "result": "> 40", "unit": "µM"}, {"measurement": "MIC", "setting": "Staphylococcus capitis 1", "result": "≥ 40", "unit": "µM"}, {"measurement": "MIC", "setting": "[8]", "result": "≥ 40", "unit": "µM"}, {"measurement": "MIC", "setting": "Bacillus megaterium Bm11", "result": 20, "unit": "µM"}, {"measurement": "MIC", "setting": "[9]", "result": 20, "unit": "µM"}, {"measurement": "MIC", "setting": "[10]", "result": "≥ 40", "unit": "µM"}]}, {"molecule": "CC[C@H](C)[C@@H]1NC(=O)[C@H](CCCCN)NC(=O)[C@@H](NC(=O)[C@H](C)NC(=O)[C@@H](NC(=O)[C@H](CC(C)C)NC(=O)[C@H](CC(=O)O)NC(=O)[C@@H](NC(=O)CNC(=O)[C@H](CC(C)C)NC(=O)[C@H](CCCCN)NC(=O)[C@H](C)NC(=O)[C@H](CC(C)C)NC(=O)[C@H](CC(=O)O)NC(=O)[C@H](CCCCN)NC(=O)CNC(=O)[C@H](CC(C)C)NC(=O)CNC(=O)[C@H](CCCCN)NC(=O)[C@H](CO)NC(=O)[C@H](C)NC(=O)[C@H](Cc2ccccc2)NC(=O)[C@H](CCCCN)NC(=O)[C@H](C)NC(=O)[C@@H](NC(=O)CNC(=O)[C@H](CCCN=C(N)N)NC(=O)[C@H](Cc2ccccc2)NC(=O)[C@@H](NC(=O)[C@H](CO)NC(=O)[C@H](CO)NC(=O)[C@H](Cc2ccccc2)NC(=O)CN)[C@@H](C)CC)C(C)C)C(C)C)C(C)C)CSSC[C@@H](C(=O)O)NC(=O)[C@H](CCC(N)=O)NC(=O)[C@H](CCCCN)NC(=O)[C@H](CO)NC1=O", "note": "[GFSSIFRGVAKFASKGLGKDLAKLGVDLVACKISKQC]", "values": [{"measurement": "MIC", "setting": "[11]", "result": 6, "unit": "µM"}, {"measurement": "MIC", "setting": "[12]", "result": 5, "unit": "µM"}, {"measurement": "MIC", "setting": "[13]", "result": 6, "unit": "µM"}, {"measurement": "MIC", "setting": "[6]", "result": 5, "unit": "µM"}, {"measurement": "MIC", "setting": "[14]", "result": 5, "unit": "µM"}, {"measurement": "MIC", "setting": "[15]", "result": 5, "unit": "µM"}, {"measurement": "MIC", "setting": "[16]", "result": 10, "unit": "µM"}, {"measurement": "MIC", "setting": "[17]", "result": 3, "unit": "µM"}, {"measurement": "MIC", "setting": "[18]", "result": 6, "unit": "µM"}]}, {"molecule": "CC[C@H](C)[C@H](NC(=O)[C@@H](NC(=O)[C@@H]1CCCN1C(=O)[C@H](CO)NC(=O)[C@H](C)NC(=O)[C@H](CCCCN)NC(=O)[C@H](CCCCN)NC(=O)[C@H](Cc1ccccc1)NC(=O)[C@H](C)NC(=O)[C@H](CCCCN)NC(=O)[C@H](CCCCN)NC(=O)[C@H](Cc1ccccc1)NC(=O)[C@H](CCCCN)NC(=O)[C@H](CCCCN)NC(=O)[C@H](CCCN=C(N)N)NC(=O)[C@H](Cc1ccccc1)NC(=O)[C@H](CCCN=C(N)N)NC(=O)[C@H](CCCCN)NC(=O)[C@H](Cc1ccccc1)NC(=O)[C@H](CCCN=C(N)N)NC(=O)CN)C(C)C)C(=O)N1CCC[C@H]1C(=O)N[C@@H](CC(C)C)C(=O)N[C@@H](CC(C)C)C(=O)N[C@@H](Cc1cnc[nH]1)C(=O)N[C@@H](CC(C)C)C(N)=O", "note": "[GRFKRFRKKFKKAFKKASPVIPLLHL]", "values": [{"measurement": "MIC", "setting": "[19]", "result": "2.7 µM and 7.2 µM"}, {"measurement": "MIC", "setting": "[20]", "result": 2.9, "unit": "µM"}, {"measurement": "MIC", "setting": "[21]", "result": 2.7, "unit": "µM"}]}, {"molecule": "CC(C)C[C@H](NC(=O)[C@H](CCCCN)NC(=O)[C@H](CCC(N)=O)NC(=O)[C@@H](NC(=O)[C@@H](NC(=O)[C@H](CC(N)=O)NC(=O)[C@H](C)NC(=O)[C@@H](NC(=O)[C@@H](N)CCCCN)C(C)C)[C@@H](C)O)C(C)C)C(=O)N[C@@H](CCCCN)C(=O)N[C@@H](CCCN=C(N)N)C(=O)N[C@@H](CCCCN)C(=O)N[C@@H](C)C(=O)N[C@@H](CCCCN)C(=O)N[C@@H](CC(N)=O)C(=O)N[C@@H](C)C(=O)N[C@H](C(=O)N[C@@H](C)C(=O)O)C(C)C", "note": "[KVANTVQKLKRKAKNAVA]", "values": [{"measurement": "MIC", "setting": "Acinetobacter baumannii", "result": "≥ 50", "unit": "µM"}, {"measurement": "MIC", "setting": "[7]", "result": "> 50", "unit": "µM"}, {"measurement": "MIC", "setting": "[22]", "result": 12.5, "unit": "µM"}, {"measurement": "MIC", "setting": "[23]", "result": "≥ 50", "unit": "µM"}, {"measurement": "MIC", "setting": "[24]", "result": "≥ 50", "unit": "µM"}, {"measurement": "MIC", "setting": "Escherichia coli 170", "result": "≥ 50", "unit": "µM"}, {"measurement": "MIC", "setting": "[25]", "result": "≥ 50", "unit": "µM"}]}, {"molecule": "CC(C)C[C@H](NC(=O)[C@H](CC(C)C)NC(=O)[C@H](CO)NC(=O)[C@H](CCC(N)=O)NC(=O)[C@@H](NC(=O)[C@@H](NC(=O)[C@H](CCCCN)NC(=O)[C@@H]1CCCN1C(=O)[C@H](CC(=O)O)NC(=O)[C@@H](N)CC(C)C)C(C)C)C(C)C)C(N)=O", "note": "[LDPKVVQSLL]", "values": [{"measurement": "MIC", "setting": "[26]", "result": "≥ 200", "unit": "µM"}, {"measurement": "MIC", "setting": "[27]", "result": "≥ 200", "unit": "µM"}, {"measurement": "MIC", "setting": "Botrytis cinerea", "result": "≥ 200", "unit": "µM"}, {"measurement": "MIC", "setting": "[9]", "result": "> 200", "unit": "µM"}]}, {"molecule": "CC[C@H](C)[C@H](NC(=O)[C@H](CCCN=C(N)N)NC(=O)[C@H](Cc1c[nH]c2ccccc12)NC(=O)[C@@H](NC(=O)[C@@H](NC(=O)[C@H](CC(C)C)NC(=O)[C@H](Cc1c[nH]c2ccccc12)NC(=O)[C@H](CCCN=C(N)N)NC(=O)[C@H](CCC(N)=O)NC(=O)[C@@H](N)C(C)C)[C@@H](C)CC)C(C)C)C(=O)N[C@@H](CCCN=C(N)N)C(=O)N[C@@H](CCCCN)C(N)=O", "note": "[VQRWLIVWRIRK]", "values": [{"measurement": "MIC", "setting": "Staphylococcus aureus", "result": 3.02, "unit": "µM"}, {"measurement": "MIC", "setting": "[28]", "result": 17.7, "unit": "µM"}, {"measurement": "MIC", "setting": "[6]", "result": 77.4, "unit": "µM"}, {"measurement": "MIC", "setting": "Pseudomonas aeruginosa", "result": 11.5, "unit": "µM"}, {"measurement": "MIC", "setting": "[29]", "result": "≥ 38.7", "unit": "µM"}]}]}
